Assay results from patent US4731451A, “N-((2-oxo-3(2H)benzothiazolyl)methyl)-2-chloroacetanilides” (Monsanto Company, priority 1980, dated 1988).

Tests used:
Type in all cases: in vivo
[1] = test system: Cocklebur; test: Pre-emergent herbicidal activity (Table III)
Experimental: (§1) The pre-emergence tests are conducted as follows:
(§2) A good grade of top soil is placed in aluminum pans and compacted to a depth of three-eighths to one-half inch from the top of the pan. On the top of the soil is placed a predetermined number of seeds or vegetative propagules of various plant species. The soil required to level fill the pans after seeding or adding vegetative propagules is weighed into a pan. A known amount of the active ingredient applied in a solvent or as a wettable powder suspension and the soil are thoroughly mixed, and used as a cover layer for prepared pans. After treatment, the pans are moved into a greenhouse bench where they are watered from below as needed to give adequate moisture for germination and growth.
(§3) Approximately 2-3 weeks after seeding and treating, the plants are observed and the results recorded. The herbicidal rating is obtained by means of fixed scale based on the percent injury of each plant species. The ratings are defined as follows: […]
(§4) The compounds were further tested by utilizing the above procedure on the following plant species: […]

[2] = test system: Soybean; test: Pre-emergent herbicidal activity (Table III)
Experimental: as §1, §2, §3, §4

[3] = test system: Rice; test: Pre-emergent herbicidal activity (Table III)
Experimental: as §1, §2, §3, §4

[4] = test system: Velvetleaf; test: Pre-emergent herbicidal activity (Table III)
Experimental: as §1, §2, §3, §4

[5] = test system: Wheat; test: Pre-emergent herbicidal activity (Table III)
Experimental: as §1, §2, §3, §4

[6] = test system: Morningglory; test: Pre-emergent herbicidal activity (Table III)
Experimental: as §1, §2, §3, §4

[7] = test system: Panicum; test: Pre-emergent herbicidal activity (Table III)
Experimental: as §1, §2, §3, §4

[8] = test system: Downy Brome; test: Pre-emergent herbicidal activity (Table III)
Experimental: as §1, §2, §3, §4

[9] = test system: Sorghum; test: Pre-emergent herbicidal activity (Table III)
Experimental: as §1, §2, §3, §4

[10] = test system: Wild Buckwheat; test: Pre-emergent herbicidal activity (Table III)
Experimental: as §1, §2, §3, §4

[11] = test system: Crabgrass; test: Pre-emergent herbicidal activity (Table III)
Experimental: as §1, §2, §3, §4

[12] = test system: Lambsquarters; test: Pre-emergent herbicidal activity (Table III)
Experimental: as §1, §2, §3, §4

[13] = test system: Smartweed; test: Pre-emergent herbicidal activity (Table III)
Experimental: as §1, §2, §3, §4

[14] = test system: Hemp Sesbania; test: Pre-emergent herbicidal activity (Table III)
Experimental: as §1, §2, §3, §4

[15] = test system: Sugarbeet; test: Pre-emergent herbicidal activity (Table III)
Experimental: as §1, §2, §3, §4

[16] = test system: Barnyardgrass; test: Pre-emergent herbicidal activity (Table III)
Experimental: as §1, §2, §3, §4

[17] = test system: Cocklebur; test: Pre-emergent herbicidal activity (Table II); conditions: 2-3 weeks
Experimental: as §1, §2, §3
(§5) The plant species utilized in one set of tests, the data for which are shown in Table II, are identified by letter in accordance with the following legend: […]

[18] = test system: Johnsongrass; test: Pre-emergent herbicidal activity (Table II); conditions: 2-3 weeks
Experimental: as §1, §2, §3, §5

[19] = test system: Velvetleaf; test: Pre-emergent herbicidal activity (Table II); conditions: 2-3 weeks
Experimental: as §1, §2, §3, §5

[20] = test system: Yellow Nutsedge; test: Pre-emergent herbicidal activity (Table II); conditions: 2-3 weeks
Experimental: as §1, §2, §3, §5

[21] = test system: Quackgrass; test: Pre-emergent herbicidal activity (Table II); conditions: 2-3 weeks
Experimental: as §1, §2, §3, §5

[22] = test system: Canada Thistle; test: Pre-emergent herbicidal activity (Table II); conditions: 2-3 weeks
Experimental: as §1, §2, §3, §5

[23] = test system: Morningglory; test: Pre-emergent herbicidal activity (Table II); conditions: 2-3 weeks
Experimental: as §1, §2, §3, §5

[24] = test system: Downy Brome; test: Pre-emergent herbicidal activity (Table II); conditions: 2-3 weeks
Experimental: as §1, §2, §3, §5

[25] = test system: Lambsquarters; test: Pre-emergent herbicidal activity (Table II); conditions: 2-3 weeks
Experimental: as §1, §2, §3, §5

[26] = test system: Smartweed; test: Pre-emergent herbicidal activity (Table II); conditions: 2-3 weeks
Experimental: as §1, §2, §3, §5

[27] = test system: Barnyardgrass; test: Pre-emergent herbicidal activity (Table II); conditions: 2-3 weeks
Experimental: as §1, §2, §3, §5

Measured: Herbicidal rating
Note: ranges in brackets are in %.

COc1cccc(C)c1N(Cn1c(=O)sc2ccccc21)C(=O)CCl [Example 2, N-(2'-methoxy-6'-methyl)-N-[(2-oxo-3(2H)-benzothiazolyl)methyl]-2-chloroacetanilide]
0 (0-24): [1]; 0.0112 kg/ha | [1]; 0.056 kg/ha | [1]; 0.28 kg/ha | [1]; 1.12 kg/ha | [1]; 5.6 kg/ha | [2]; 0.0112 kg/ha | [2]; 0.056 kg/ha | [2]; 0.28 kg/ha | [2]; 1.12 kg/ha | [2]; 5.6 kg/ha | [3]; 0.0112 kg/ha | [3]; 0.056 kg/ha | [4]; 0.0112 kg/ha | [4]; 0.056 kg/ha | [4]; 0.28 kg/ha | [4]; 1.12 kg/ha | [4]; 5.6 kg/ha | [5]; 0.0112 kg/ha | [5]; 0.056 kg/ha | [5]; 0.28 kg/ha | [5]; 1.12 kg/ha | [6]; 0.0112 kg/ha | [6]; 0.056 kg/ha | [6]; 0.28 kg/ha | [6]; 1.12 kg/ha | [6]; 5.6 kg/ha | [7]; 0.0112 kg/ha | [8]; 0.0112 kg/ha | [8]; 0.056 kg/ha | [9]; 0.0112 kg/ha | [9]; 0.056 kg/ha | [9]; 0.28 kg/ha | [10]; 0.0112 kg/ha | [10]; 0.056 kg/ha | [10]; 0.28 kg/ha | [10]; 1.12 kg/ha | [10]; 5.6 kg/ha | [11]; 0.0112 kg/ha | [11]; 0.056 kg/ha | [12]; 0.0112 kg/ha | [12]; 0.056 kg/ha | [13]; 0.0112 kg/ha | [13]; 0.056 kg/ha | [14]; 0.0112 kg/ha | [14]; 0.056 kg/ha | [14]; 0.28 kg/ha | [14]; 1.12 kg/ha | [15]; 0.0112 kg/ha | [15]; 0.056 kg/ha | [15]; 0.28 kg/ha | [15]; 1.12 kg/ha | [15]; 5.6 kg/ha | [16]; 0.0112 kg/ha | [17]; 5.6 kg/ha | [17]; 11.2 kg/ha | [18]; 5.6 kg/ha | [18]; 11.2 kg/ha | [19]; 5.6 kg/ha | [19]; 11.2 kg/ha | [22]; 5.6 kg/ha | [22]; 11.2 kg/ha | [23]; 5.6 kg/ha | [23]; 11.2 kg/ha | [26]; 5.6 kg/ha | [26]; 11.2 kg/ha
1 (25-49): [3]; 0.28 kg/ha | [7]; 0.28 kg/ha | [8]; 0.28 kg/ha | [9]; 1.12 kg/ha | [9]; 5.6 kg/ha | [11]; 0.28 kg/ha | [12]; 5.6 kg/ha | [13]; 0.28 kg/ha | [21]; 11.2 kg/ha | [24]; 5.6 kg/ha | [25]; 5.6 kg/ha | [25]; 11.2 kg/ha
3 (75-100): [3]; 1.12 kg/ha | [3]; 5.6 kg/ha | [7]; 1.12 kg/ha | [7]; 5.6 kg/ha | [8]; 1.12 kg/ha | [8]; 5.6 kg/ha | [11]; 1.12 kg/ha | [11]; 5.6 kg/ha | [12]; 1.12 kg/ha | [16]; 0.28 kg/ha | [16]; 1.12 kg/ha | [16]; 5.6 kg/ha | [20]; 5.6 kg/ha | [20]; 11.2 kg/ha | [27]; 5.6 kg/ha | [27]; 11.2 kg/ha
2 (50-74): [5]; 5.6 kg/ha | [7]; 0.056 kg/ha | [12]; 0.28 kg/ha | [13]; 1.12 kg/ha | [13]; 5.6 kg/ha | [14]; 5.6 kg/ha | [16]; 0.056 kg/ha | [21]; 5.6 kg/ha | [24]; 11.2 kg/ha

CCc1cccc(CC)c1N(Cn1c(=O)sc2ccccc21)C(=O)CCl [Example 3, N--[(2-oxo-3(2H)--benzothiazolyl)methyl]-2'-6'-diethyl-2-chloroacetanilide]
3 (75-100): [7]; 5.6 kg/ha | [11]; 5.6 kg/ha | [16]; 0.28 kg/ha | [16]; 1.12 kg/ha | [16]; 5.6 kg/ha | [27]; 5.6 kg/ha | [27]; 11.2 kg/ha
2 (50-74): [8]; 5.6 kg/ha | [11]; 1.12 kg/ha
0 (0-24): [1]; 0.28 kg/ha | [1]; 1.12 kg/ha | [1]; 5.6 kg/ha | [2]; 0.28 kg/ha | [2]; 1.12 kg/ha | [2]; 5.6 kg/ha | [3]; 1.12 kg/ha | [3]; 5.6 kg/ha | [4]; 0.28 kg/ha | [4]; 1.12 kg/ha | [4]; 5.6 kg/ha | [5]; 0.28 kg/ha | [5]; 1.12 kg/ha | [5]; 5.6 kg/ha | [6]; 0.28 kg/ha | [6]; 1.12 kg/ha | [6]; 5.6 kg/ha | [7]; 0.28 kg/ha | [8]; 0.28 kg/ha | [9]; 0.28 kg/ha | [9]; 1.12 kg/ha | [9]; 5.6 kg/ha | [10]; 0.28 kg/ha | [10]; 1.12 kg/ha | [10]; 5.6 kg/ha | [12]; 0.28 kg/ha | [12]; 1.12 kg/ha | [12]; 5.6 kg/ha | [13]; 0.28 kg/ha | [13]; 5.6 kg/ha | [14]; 0.28 kg/ha | [14]; 1.12 kg/ha | [14]; 5.6 kg/ha | [15]; 0.28 kg/ha | [15]; 1.12 kg/ha | [15]; 5.6 kg/ha | [17]; 5.6 kg/ha | [17]; 11.2 kg/ha | [18]; 5.6 kg/ha | [18]; 11.2 kg/ha | [19]; 5.6 kg/ha | [19]; 11.2 kg/ha | [21]; 5.6 kg/ha | [22]; 5.6 kg/ha | [22]; 11.2 kg/ha | [23]; 5.6 kg/ha | [23]; 11.2 kg/ha | [25]; 5.6 kg/ha | [25]; 11.2 kg/ha | [26]; 5.6 kg/ha | [26]; 11.2 kg/ha
1 (25-49): [3]; 0.28 kg/ha | [7]; 1.12 kg/ha | [8]; 1.12 kg/ha | [11]; 0.28 kg/ha | [13]; 1.12 kg/ha | [20]; 5.6 kg/ha | [20]; 11.2 kg/ha | [21]; 11.2 kg/ha | [24]; 5.6 kg/ha | [24]; 11.2 kg/ha
